According to ChEMBL document CHEMBL3351442, “Synthesis and antiproliferative evaluation of 2-hydroxylated (E)-stilbenes” (Bioorg Med Chem Lett, 2014):

System: MGC-803
Experiment: Antiproliferative activity against human MGC803 cells by MTT assay
Type: functional, cell-based
Conditions: not given

SMILES	IC50 [µM]
COc1cccc(/C=C\c2cc(OC)c(OC)c(OC)c2)c1O	1.1
N#Cc1ccc(/C=C/c2ccccc2O)cc1	3.1
Cc1cc(C)cc(/C=C/c2cc(Br)ccc2O)c1	5
COc1cc(/C=C/c2cc(Br)ccc2O)cc(OC)c1OC	4.5
COc1cc(/C=C/c2cc([N+](=O)[O-])ccc2O)cc(OC)c1	10.6
COc1ccc(/C=C/c2cc(OC)c(OC)c(OC)c2)c(O)c1	0.035
Oc1ccc(/C=C/c2cc(O)cc(O)c2)cc1 [RESVERATROL]	42

Now from value to compound:

IC50 [µM]	SMILES
6.3	COc1cc(/C=C/c2ccccc2O)cc(OC)c1
3.5	COc1ccc(/C=C/c2cc(Br)ccc2O)c(OC)c1
3.3	COc1cc(/C=C/c2cc(Br)ccc2O)cc(OC)c1
14.7	COc1cc(/C=C/c2cc([N+](=O)[O-])ccc2O)cc(OC)c1OC

System: not listed separately
Experiment: Antiproliferative activity against human MDA468 cells by MTT assay
Type: functional, cell-based
Conditions: MDA-MB-468

SMILES	IC50 [µM]
COc1cccc(/C=C\c2cc(OC)c(OC)c(OC)c2)c1O	2.6
COc1cc(/C=C/c2ccccc2O)cc(OC)c1	12.6
Oc1ccccc1/C=C/c1ccccc1	19.3
Cc1ccc(/C=C/c2ccccc2O)cc1	21.9
Oc1ccccc1/C=C/c1ccc(Br)cc1	7.4
COc1cccc(/C=C/c2ccc(O)cc2)c1O	6.9
COc1ccc(/C=C/c2cccc(OC)c2O)c(OC)c1	5.1
Oc1ccc(/C=C/c2cc(Br)ccc2O)cc1	3.5
COc1ccc(/C=C/c2cc(Br)ccc2O)c(OC)c1	3.7
Cc1cc(C)cc(/C=C/c2cc(Br)ccc2O)c1	7.2
COc1cc(/C=C/c2cc(Br)ccc2O)cc(OC)c1	6.1
COc1cc(/C=C/c2cc(Br)ccc2O)cc(OC)c1OC	14.2
COc1ccc(/C=C/c2cc(OC)c(OC)c(OC)c2)c(O)c1	5.3
Oc1ccc(/C=C/c2cc(O)cc(O)c2)cc1 [RESVERATROL]	45.2

System: HT-29
Experiment: Antiproliferative activity against human HT-29 cells by MTT assay
Type: functional, cell-based
Conditions: not given

SMILES	IC50 [µM]
Cc1ccc(/C=C/c2ccccc2O)cc1	22.9
Oc1cc(O)cc(/C=C/c2ccccc2O)c1	26.2
Cc1cc(C)cc(/C=C/c2cc(Br)ccc2O)c1	13.3
COc1cc(/C=C/c2cc(Br)ccc2O)cc(OC)c1OC	18.5
COc1cc(/C=C/c2cc([N+](=O)[O-])ccc2O)cc(OC)c1	12.6
COc1ccc(/C=C/c2cc(OC)c(OC)c(OC)c2)c(O)c1	9.7
Oc1ccc(/C=C/c2cc(O)cc(O)c2)cc1 [RESVERATROL]	87.2

The next lines start with the values.

IC50 [µM]	SMILES
26.2	COc1cc(/C=C/c2ccccc2O)cc(OC)c1
14.4	Oc1ccccc1/C=C/c1ccc(Br)cc1
33.5	Oc1ccc(/C=C/c2ccccc2O)cc1
26.7	Oc1ccc(/C=C/c2cc(Br)ccc2O)cc1
10	COc1ccc(/C=C/c2cc(Br)ccc2O)c(OC)c1
9.5	COc1cc(/C=C/c2cc(Br)ccc2O)cc(OC)c1

System: not listed separately
Experiment: Antiproliferative activity against human COLO205 cells by MTT assay
Type: functional, cell-based
Conditions: COLO 205

SMILES	IC50 [µM]
Oc1ccccc1/C=C/c1ccc(Br)cc1	21.1
COc1ccc(/C=C/c2cccc(OC)c2O)cc1	20.2
COc1cc(/C=C/c2cc(Br)ccc2O)cc(OC)c1	16.4
COc1ccc(/C=C/c2cc(OC)c(OC)c(OC)c2)c(O)c1	5.3
Oc1ccc(/C=C/c2cc(O)cc(O)c2)cc1 [RESVERATROL]	23.5
